# Laboratory results as given in patent US12139499B2, “Heteroaryl compounds for treating Huntington's disease” (PTC THERAPEUTICS, INC., priority 2018, dated 2024).
# Test system: Endogenous Huntingtin Protein
# Assay: Endogenous Huntingtin Protein Assay (ELISA-based MSD electrochemiluminescence)
# Assay type: cell-based
# Conditions: Table 1
# Procedure, shortened: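 Sandwich MSD electrochemiluminescence immunoassay. Capture used MW1 (expanded polyglutamine) or MAB2166 antibody coated at 1 μg/mL overnight at 4 °C. Samples were bound overnight at 4 °C, then a rabbit monoclonal detection antibody and SULFO-TAG anti-rabbit, each at 0.25 μg/mL, were applied for 1 h at room temperature.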
row,Structure (SMILES),IC50
1,"Cc1cn2cc(-c3cc4sc(N(C)C5CC(C)(C)NC(C)(C)C5)nc4cn3)cc(F)c2n1 [Compound 147, 6-(8-fluoro-2-methylimidazo[1,2-a]pyridin-6-yl)-N-methyl-N-(2,2,6,6-tetramethylpiperidin-4-yl)[1,3]thiazolo[4,5-c]pyridin-2-amine]",≤ 100 nM
2,"CN(c1nc2ccc(-c3cc(C#N)c4nn(C)cc4c3)nc2s1)C1CC(C)(C)NC(C)(C)C1 [Compound 148, 2-methyl-5-{2-[methyl(2,2,6,6-tetramethylpiperidin-4-yl)amino][1,3]thiazolo[5,4-b]pyridin-5-yl}-2H-indazole-7-carbonitrile]",≤ 100 nM
3,"CN(c1nc2ccc(-c3ccc(-c4cn[nH]c4)cc3O)nc2s1)C1CC(C)(C)NC(C)(C)C1 [Compound 149, 2-{2-[methyl(2,2,6,6-tetramethylpiperidin-4-yl)amino][1,3]thiazolo[5,4-b]pyridin-5-yl}-5-(1H-pyrazol-4-yl)phenol]",100 to 500 nM
4,"CN(c1nc2ncc(-c3cc(F)c4nn(C)cc4c3)nc2s1)C1CC(C)(C)NC(C)(C)C1 [Compound 150, 6-(7-fluoro-2-methyl-2H-indazol-5-yl)-N-methyl-N-(2,2,6,6-tetramethylpiperidin-4-yl)[1,3]thiazolo[4,5-b]pyrazin-2-amine]",≤ 100 nM
5,"COc1cc(-c2cc(F)c3nc(C4CCNCC4)sc3c2)nn2cc(C)nc12 [Compound 151, 6-[4-fluoro-2-(piperidin-4-yl)-1,3-benzothiazol-6-yl]-8-methoxy-2-methylimidazo[1,2-b]pyridazine]",≤ 100 nM
6,"Cc1cn2cc(-c3cc(F)c4nc(C5CCNCC5)sc4c3)cc(F)c2n1 [Compound 152, 4-fluoro-6-(8-fluoro-2-methylimidazo[1,2-a]pyridin-6-yl)-2-(piperidin-4-yl)-1,3-benzothiazole]",≤ 100 nM
7,"Cn1cc2cc(-c3cc(Cl)c4nc(C5=CCNCC5)sc4c3)cc(F)c2n1 [Compound 153, 4-chloro-6-(7-fluoro-2-methyl-2H-indazol-5-yl)-2-(1,2,3,6-tetrahydropyridin-4-yl)-1,3-benzothiazole]",1000 to 3000 nM
8,"Cn1cc2cc(-c3cc(Cl)c4nc(C5=CCNCC5)sc4c3)cc(C#N)c2n1 [Compound 154, 5-[4-chloro-2-(1,2,3,6-tetrahydropyridin-4-yl)-1,3-benzothiazol-6-yl]-2-methyl-2H-indazole-7-carbonitrile]",1000 to 3000 nM
9,"CN(c1nc2ccc(-c3ccc4nn(C)cc4c3)cc2s1)C1CCNC(C)(C)C1 (stereo not shown) [Compound 155, N-(2,2-dimethylpiperidin-4-yl)-N-methyl-6-(2-methyl-2H-indazol-5-yl)-1,3-benzothiazol-2-amine]",100 to 500 nM
10,"Cc1cn2cc(-c3ccc4nc(C5CCNCC5)sc4c3)cnc2n1 [Compound 156, 2-methyl-6-[2-(piperidin-4-yl)-1,3-benzothiazol-6-yl]imidazo[1,2-a]pyrimidine]",1000 to 3000 nM
11,"Cc1cn2cc(-c3cc4sc(N(C)C5CC(C)(C)NC(C)(C)C5)nc4nn3)cc(F)c2n1 [Compound 157, 3-(8-fluoro-2-methylimidazo[1,2-a]pyridin-6-yl)-N-methyl-N-(2,2,6,6-tetramethylpiperidin-4-yl)[1,3]thiazolo[4,5-c]pyridazin-6-amine]",≤ 100 nM
12,"CN(c1nc2nnc(-c3cc(C#N)c4nn(C)cc4c3)cc2s1)C1CC(C)(C)NC(C)(C)C1 [Compound 158, 2-methyl-5-{6-[methyl(2,2,6,6-tetramethylpiperidin-4-yl)amino][1,3]thiazolo[4,5-c]pyridazin-3-yl}-2H-indazole-7-carbonitrile]",100 to 500 nM
13,"CN(c1nc2ncc(-c3ccc(-c4cn[nH]c4)c(F)c3F)nc2s1)C1CC(C)(C)NC(C)(C)C1 [Compound 161, 6-[2,3-difluoro-4-(1H-pyrazol-4-yl)phenyl]-N-methyl-N-(2,2,6,6-tetramethylpiperidin-4-yl)[1,3]thiazolo[4,5-b]pyrazin-2-amine]",1000 to 3000 nM
14,"Cc1cn2nc(-c3cnc4nc(N(C)C5CC(C)(C)NC(C)(C)C5)sc4n3)cc(C)c2n1 [Compound 162, 6-(2,8-dimethylimidazo[1,2-b]pyridazin-6-yl)-N-methyl-N-(2,2,6,6-tetramethylpiperidin-4-yl)[1,3]thiazolo[4,5-b]pyrazin-2-amine]",≤ 100 nM
15,"Cc1cn2cc(-c3cnc4nc(N(C)C5CC(C)(C)NC(C)(C)C5)sc4n3)cc(C#N)c2n1 [Compound 163, 2-methyl-6-{2-[methyl(2,2,6,6-tetramethylpiperidin-4-yl)amino][1,3]thiazolo[4,5-b]pyrazin-6-yl}imidazo[1,2-a]pyridine-8-carbonitrile]",≤ 100 nM
16,"Cc1cn2nc(-c3cc(F)c4nc(N(C)C5CCN[C@@H](C)C5)sc4c3)ccc2n1 (stereo partly drawn) [Compound 164, 4-fluoro-N-methyl-6-(2-methylimidazo[1,2-b]pyridazin-6-yl)-N-[(2S)-2-methylpiperidin-4-yl]-1,3-benzothiazol-2-amine]",≤ 100 nM
17,"Cc1cn2nc(-c3cc(F)c4nc(N(C)C5CCN[C@@H](C)C5)sc4c3)cc(C)c2n1 (stereo partly drawn) [Compound 165, 6-(2,8-dimethylimidazo[1,2-b]pyridazin-6-yl)-4-fluoro-N-methyl-N-[(2S)-2-methylpiperidin-4-yl]-1,3-benzothiazol-2-amine]",≤ 100 nM

row,Structure (SMILES),IC50
1,"Cc1cn2nc(-c3cc(F)c4nc(C5CCN6CCCC6C5)sc4c3)ccc2n1 (stereo not shown) [Compound 166, 6-[4-fluoro-2-(octahydroindolizin-7-yl)-1,3-benzothiazol-6-yl]-2-methylimidazo[1,2-b]pyridazine]",≤ 100 nM
2,"CNc1cc(-c2cc(F)c3nc(C4CCNCC4)sc3c2)nn2cc(C)nc12 [Compound 167, 6-[4-fluoro-2-(piperidin-4-yl)-1,3-benzothiazol-6-yl]-N,2-dimethylimidazo[1,2-b]pyridazin-8-amine]",≤ 100 nM
3,"Cc1cn2nc(-c3cc(F)c4nc(C5CCNCC5)sc4c3)cc(N(C)C)c2n1 [Compound 168, 6-[4-fluoro-2-(piperidin-4-yl)-1,3-benzothiazol-6-yl]-N,N,2-trimethylimidazo[1,2-b]pyridazin-8-amine]",≤ 100 nM
4,"Cc1cn2cc(-c3ccc4nc(C5CCNCC5)sc4c3)ncc2n1 [Compound 169, 2-methyl-6-[2-(piperidin-4-yl)-1,3-benzothiazol-6-yl]imidazo[1,2-a]pyrazine]",100 to 500 nM
5,"Cc1cn2cc(-c3ncc4nc(N(C)C5CC(C)(C)NC(C)(C)C5)sc4n3)cc(C#N)c2n1 [Compound 170, 2-methyl-6-{2-[methyl(2,2,6,6-tetramethylpiperidin-4-yl)amino][1,3]thiazolo[5,4-d]pyrimidin-5-yl}imidazo[1,2-a]pyridine-8-carbonitrile]",≤ 100 nM
6,"Cc1cn2cc(-c3ncc4nc(N(C)C5CC(C)(C)NC(C)(C)C5)sc4n3)cc(F)c2n1 [Compound 171, 5-(8-fluoro-2-methylimidazo[1,2-a]pyridin-6-yl)-N-methyl-N-(2,2,6,6-tetramethylpiperidin-4-yl)[1,3]thiazolo[5,4-d]pyrimidin-2-amine]",≤ 100 nM
7,"Cn1cc2cc(-c3cc(C#N)c4nc(C5=CCNCC5)sc4c3)cc(C#N)c2n1 [Compound 172, 6-(7-cyano-2-methyl-2H-indazol-5-yl)-2-(1,2,3,6-tetrahydropyridin-4-yl)-1,3-benzothiazole-4-carbonitrile]",1000 to 3000 nM
8,"Cc1cn2cc(-c3cnc4nc(N5CCNCC5)sc4n3)cc(C#N)c2n1 [Compound 173, 2-methyl-6-[2-(piperazin-1-yl)[1,3]thiazolo[4,5-b]pyrazin-6-yl]imidazo[1,2-a]pyridine-8-carbonitrile]",1000 to 3000 nM
9,"Cc1cn2cc(-c3cnc4nc(N5CCNCC5)sc4n3)cc(F)c2n1 [Compound 174, 6-(8-fluoro-2-methylimidazo[1,2-a]pyridin-6-yl)-2-(piperazin-1-yl)[1,3]thiazolo[4,5-b]pyrazine]",1000 to 3000 nM
10,"Cc1cc(-c2ccc3nc(N(C)C4CC(C)NC(C)C4)sc3c2)cc2cn(C)nc12 (stereo not shown) [Compound 175, 6-(2,7-dimethyl-2H-indazol-5-yl)-N-(2,6-dimethylpiperidin-4-yl)-N-methyl-1,3-benzothiazol-2-amine]",≤ 100 nM
11,"CC1CC(N(C)c2nc3ccc(-c4ccc5nn(C)cc5c4)cc3s2)CC(C)N1 (stereo not shown) [Compound 176, N-(2,6-dimethylpiperidin-4-yl)-N-methyl-6-(2-methyl-2H-indazol-5-yl)-1,3-benzothiazol-2-amine]",≤ 100 nM
12,"Cc1cn2cc(-c3ccc4nc(N(C)C5CC(C)(C)NC(C)(C)C5)sc4n3)cc(F)c2n1 [Compound 177, 5-(8-fluoro-2-methylimidazo[1,2-a]pyridin-6-yl)-N-methyl-N-(2,2,6,6-tetramethylpiperidin-4-yl)[1,3]thiazolo[5,4-b]pyridin-2-amine]",≤ 100 nM
13,"Cc1cn2cc(-c3ccc4nc(N(C)C5CC(C)(C)NC(C)(C)C5)sc4n3)cc(C#N)c2n1 [Compound 178, 2-methyl-6-{2-[methyl(2,2,6,6-tetramethylpiperidin-4-yl)amino][1,3]thiazolo[5,4-b]pyridin-5-yl}imidazo[1,2-a]pyridine-8-carbonitrile]",≤ 100 nM
14,"Cc1cn2cc(-c3cc4sc(N(C)C5CC(C)(C)NC(C)(C)C5)nc4cn3)cc(C#N)c2n1 [Compound 179, 2-methyl-6-{2-[methyl(2,2,6,6-tetramethylpiperidin-4-yl)amino][1,3]thiazolo[4,5-c]pyridin-6-yl}imidazo[1,2-a]pyridine-8-carbonitrile]",≤ 100 nM
15,"Cc1cn2cc(-c3cnc4nc(OC5CC(C)(C)NC(C)(C)C5)sc4n3)cc(F)c2n1 [Compound 180, 6-(8-fluoro-2-methylimidazo[1,2-a]pyridin-6-yl)-2-[(2,2,6,6-tetramethylpiperidin-4-yl)oxy][1,3]thiazolo[4,5-b]pyrazine]",100 to 500 nM
16,"Cc1cn2cc(-c3cnc4nc(OC5CC(C)(C)NC(C)(C)C5)sc4n3)cc(C#N)c2n1 [Compound 181, 2-methyl-6-{2-[(2,2,6,6-tetramethylpiperidin-4-yl)oxy][1,3]thiazolo[4,5-b]pyrazin-6-yl}imidazo[1,2-a]pyridine-8-carbonitrile]",100 to 500 nM
17,"Cc1cn2nc(-c3cnc4nc(N5CCNCC5)sc4n3)ccc2n1 [Compound 182, 6-(2-methylimidazo[1,2-b]pyridazin-6-yl)-2-(piperazin-1-yl)[1,3]thiazolo[4,5-b]pyrazine]",500 to 1000 nM
